pIC50: −log10 of the molar value. Where two headings read alike, the source gives them in different places.
Legend:
PDE4D = molecular target: T1, PDE4D (Homo sapiens, UniProt Q08499); experiment: PDE4D enzyme activity assay (PDE-Glo Phosphodiesterase Assay Kit); assay type: biochemical
T1 construct: purchased Enzo Life Sciences BML-SE523-0020
Method: (§1) For the previously synthesized compounds, the inhibitory activity of the compounds against PDE4B and against PDE4D was tested by using PDE-Glo Phosphodiesterase Assay Kit (promega, V1361). In short, in accordance with the instructions of the kit, a concentrated stock solution (10 mM) the compound to be tested was first prepared with DMSO solvent, and the concentrated stock solution was then diluted into 10× working solutions with a Reaction buffer provided in the kit. With the Reaction buffer, on ice, PDE4B enzyme (Enzo Life Sciences, BML-SE522-0020) was diluted to a concentration of 1 ng/μl to obtain a PDE4B enzyme working solution, and PDE4D enzyme (Enzo Life Sciences, BML-SE523-0020) was diluted to a concentration of 4 ng/μl to obtain a PDE4D enzyme working solution. 1.5 μl of the PDE4B working solution (or PDE4D working solution) and 1 μl of the compound working solution were added to wells of 384-well plate (Corning, CLS3707), and incubated with shaking at room temperature for 5 min, followed by adding 2.5 μl of cAMP (in Reaction buffer, 2 μM) per well, incubating with shaking at room temperature for 20 min. 2.5 μl/well of 1× Termination Buffer, and then 2.5 μl/well of 1× Detection Buffer were added, and further incubated with shaking at room temperature for 20 min. 10 μl/well of 1× Kinase-Glo was added, and the plate was incubated with shaking at room temperature for 10 min, and bioluminescence was measured with PheraStar instrument. The experimental results were plotted with GraphPad Prism software, and fitted to calculate IC50 of each compound.

[1] = system: LPS-induced secretion of TNFα in human PBMCs; experiment: LPS-induced secretion of TNFα in human PBMCs; assay type: cell-based; details: Homo sapiens, PBMC, 24 h, LPS 10 ng/ml
Method: Extraction process of peripheral blood mononuclear cells (PBMCs): one unit of human peripheral blood concentrate (concentrated from 200 cc peripheral blood) was sucked and added with 0.9% saline until a total volume reached 120 ml, and mixed homogenously. 15 ml Lymphoprep™ was added into 50 ml centrifuge tube, and then 30 ml of diluted blood concentrate was carefully and slowly added thereto, allowing the diluted blood to be stacked on the layered solution and preventing the diluted blood from being mixed into the separated solutions or breaking the surface of the separated solution, wherein a ratio of Lymphoprep™ to the diluted blood was 1:2. The centrifuge tubes were balanced and placed in a horizontal centrifuge (eppendorf, 5810R), and centrifuged at 800 g and 20° C. for 20 min. The centrifuge tubes were carefully taken out. PBMCs were absorbed by directly inserting the Pasteur pipette deep into the buffy coat. The obtained PBMCs were gently pipetted with 3 times the volume of 0.9% normal saline or PBS (without calcium or magnesium ions) to mix homogenously. After that, the cells were centrifuged at 250 g and 20° C. for 10 min, the supernatant was removed to remove the platelets remaining in the cell suspension. The obtained cell pellet was resuspended in 20 ml of PBS, and counted using trypan blue.
Compound screening by using PBMCs: the PBMC suspension obtained above was centrifuged to remove PBS, then resuspended in complete medium (RPMI1640+10% FBS+1% P/S) and counted. 100 μL/well of the cells was seeded at 5×10^4/well. Each of the compounds to be screened was prepared as 4 times the final concentration, which was added to the cells at 50 μL/well. The compound was pre-incubated for 30 min in advance of being added to the cells. Meanwhile, control wells to which the compound was not added were provided. A final stimulation concentration of LPS was 10 ng/ml, and LPS was formulated as 4 times the final stimulation concentration, and added to the cells at 50 μL/well. Meanwhile, control wells, i.e., wells without LPS were provided. The cells were incubated for 24 h, and 10% of the supernatant was collected for detection. The obtained supernatant was detected using Invitrogen's Human TNF-α kit (REF: 88-7346-88).

PDE4B = molecular target: T2, PDE4B (Homo sapiens, UniProt Q07343); experiment: PDE4B enzyme activity assay (PDE-Glo Phosphodiesterase Assay Kit); assay type: biochemical; details: for IC50 (PDE4D)/IC50 (PDE4B): selectivity ratio
T2 construct: purchased Enzo Life Sciences BML-SE522-0020
Method: as §1

[2] = system: LPS-stimulated TNF-α release; experiment: LPS-stimulated TNF-α release in mice; assay type: in vivo, Balb/c mice; details: Mus musculus, oral 50 mg/kg (positive control 100 mg/kg), 1 mg/kg LPS i.p.
Method: 18 Balb/c mice (6 to 8 weeks) were randomly assigned to a blank group, a model group, and an administration group, 6 mice in each group. A vehicle (blank group, model group) or 50 mg/kg compound (administration group, where the dose for the positive control group was 100 mg/kg) was orally administrated. 30 min after the oral administration, PBS (blank group) or 1 mg/kg LPS (model group and administration group) was injected intraperitoneally. 90 min or 120 min after the intraperitoneal injection, blood was collected from the hearts of the mice, and still stood at 2-8° C. for 4 hours, and centrifuged at 5000 rpm for 10 min to collect the serum. The serum was stored at −80° C. for testing.
The serum TNF-α level was tested using a mouse TNF-α detection kit (Mouse TNFa ELISA kit: Biolegend, Cat: 430904). The inhibitory activity of the compounds against the TNF-α release was calculated based on the serum TNF-α level.
Inhibitory activity of compound %={1−(TNFα concentration of administration group−TNFα concentration of blank group)/(TNFα concentration of model group−TNFα concentration of blank group)}×100%.

[3] = 2 h, blood 120 min after LPS, read-out: Inhibition rate (%) of LPS-stimulated TNF-α release, 120 min
[4] = 1.5 h, blood 90 min after LPS, read-out: Inhibition rate (%) of LPS-stimulated TNF-α release, 90 min

T2 sequence (Q07343 whole entry): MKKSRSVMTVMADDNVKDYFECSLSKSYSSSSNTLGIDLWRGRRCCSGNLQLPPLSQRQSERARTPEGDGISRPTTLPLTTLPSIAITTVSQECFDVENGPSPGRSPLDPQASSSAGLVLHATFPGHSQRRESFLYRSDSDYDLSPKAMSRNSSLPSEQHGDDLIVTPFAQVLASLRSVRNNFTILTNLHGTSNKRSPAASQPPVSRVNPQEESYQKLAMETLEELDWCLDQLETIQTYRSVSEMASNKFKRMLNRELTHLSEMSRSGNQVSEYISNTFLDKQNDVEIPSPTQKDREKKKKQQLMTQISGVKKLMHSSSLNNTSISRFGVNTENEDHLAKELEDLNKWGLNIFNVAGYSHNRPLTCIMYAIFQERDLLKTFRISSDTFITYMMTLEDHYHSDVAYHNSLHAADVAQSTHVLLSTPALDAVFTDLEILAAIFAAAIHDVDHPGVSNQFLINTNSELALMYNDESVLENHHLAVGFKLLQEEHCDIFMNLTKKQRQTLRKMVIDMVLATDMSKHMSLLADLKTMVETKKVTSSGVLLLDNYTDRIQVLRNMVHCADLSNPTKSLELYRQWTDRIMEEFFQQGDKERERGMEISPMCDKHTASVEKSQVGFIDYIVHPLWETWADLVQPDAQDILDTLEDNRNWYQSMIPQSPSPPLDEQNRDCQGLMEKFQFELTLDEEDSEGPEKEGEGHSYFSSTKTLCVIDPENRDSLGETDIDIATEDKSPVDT
T1 sequence (Q08499 whole entry): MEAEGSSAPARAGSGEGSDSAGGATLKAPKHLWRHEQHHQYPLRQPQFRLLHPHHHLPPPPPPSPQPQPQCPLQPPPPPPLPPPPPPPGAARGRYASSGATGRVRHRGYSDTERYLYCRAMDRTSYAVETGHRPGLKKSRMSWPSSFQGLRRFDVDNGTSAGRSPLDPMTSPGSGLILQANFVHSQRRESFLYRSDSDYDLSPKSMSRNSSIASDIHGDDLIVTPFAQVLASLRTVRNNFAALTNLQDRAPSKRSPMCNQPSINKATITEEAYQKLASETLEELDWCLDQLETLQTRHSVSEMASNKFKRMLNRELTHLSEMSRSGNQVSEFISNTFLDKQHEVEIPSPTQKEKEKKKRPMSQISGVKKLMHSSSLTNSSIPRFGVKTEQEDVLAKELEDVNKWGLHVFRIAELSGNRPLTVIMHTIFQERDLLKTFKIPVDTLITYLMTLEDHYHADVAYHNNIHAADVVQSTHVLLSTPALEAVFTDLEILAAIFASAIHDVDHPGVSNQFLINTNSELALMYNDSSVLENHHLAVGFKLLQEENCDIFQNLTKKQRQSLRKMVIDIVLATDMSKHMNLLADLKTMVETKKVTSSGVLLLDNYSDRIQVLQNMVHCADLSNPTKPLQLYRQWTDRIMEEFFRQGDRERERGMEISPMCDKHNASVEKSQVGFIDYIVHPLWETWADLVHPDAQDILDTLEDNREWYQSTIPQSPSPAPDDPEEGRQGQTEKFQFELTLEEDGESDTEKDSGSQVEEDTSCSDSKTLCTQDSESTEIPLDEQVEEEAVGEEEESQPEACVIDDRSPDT

SMILES | pIC50 (PDE4D) | pIC50 (PDE4B) | IC50 (PDE4D)/IC50 (PDE4B) (PDE4B) | pIC50 [1] | inhibition in vivo at 50 mg/kg [2, 3] [%] | inhibition in vivo at 50 mg/kg [2, 4] [%]
COc1ccc([C@@H]2CN(C(=O)[C@@H](O)CO)C[C@@]2(C)[C@@H](C)O)cc1OC1CN(c2ncc(Cl)cc2F)C1 [Compound 009, (S)-1-((3S,4S)-4-(3-((1-(5-chloro-3-fluoropyridin-2-yl)azetidin-3-yl)oxy)-4-methoxyphenyl)-3-((R)-1-hydroxyethyl)-3-methylpyrrolidin-1-yl)-2,3-dihydroxypropan-1-one] | 8.33 | 9.11 | 5.99 | 8.12 | 47.6 | 
COc1ccc([C@@H]2CN(C(=O)[C@@H](O)CO)C[C@@]2(C)[C@@H](C)O)cc1OC1CN(c2ncc(F)cc2Cl)C1 [Compound 014, (S)-1-((3S,4S)-4-(3-((1-(3-chloro-5-fluoropyridin-2-yl)azetidin-3-yl)oxy)-4-methoxyphenyl)-3-((R)-1-hydroxyethyl)-3-methylpyrrolidin-1-yl)-2,3-dihydroxypropan-1-one] | 8.22 | 8.18 | 0.91 | 7.82 |  | 
COc1ccc([C@@H]2CN(C(=O)[C@@H](O)CO)C[C@@]2(C)[C@@H](C)O)cc1OC1CN(c2ncc(C)cc2C)C1 [Compound 021, (S)-1-((3S,4S)-4-(3-((1-(3,5-dimethylpyridin-2-yl)azetidin-3-yl)oxy)-4-methoxyphenyl)-3-((R)-1-hydroxyethyl)-3-methylpyrrolidin-1-yl)-2,3-dihydroxypropan-1-one] | 7.83 | 8.38 | 3.59 | 7.85 |  | 
COc1ccc([C@@H]2CN(C(=O)[C@@H](O)CO)C[C@@]2(C)[C@@H](C)O)cc1OC1CN(c2cc(C)c(F)cn2)C1 [Compound 025, (S)-1-((3S,4S)-4-(3-((1-(5-fluoro-4-methylpyridin-2-yl)azetidin-3-yl)oxy)-4-methoxyphenyl)-3-((R)-1-hydroxyethyl)-3-methylpyrrolidin-1-yl)-2,3-dihydroxypropan-1-one] | 8.67 | 9.06 | 2.45 | 8.49 |  | 
COc1ccc([C@@H]2CN(C(=O)[C@@H](O)CO)C[C@@]2(C)[C@@H](C)O)cc1OC1CN(c2ccc(OC(C)C)cn2)C1 [Compound 028, (S)-2,3-dihydroxy-1-((3S,4S)-3-((R)-1-hydroxyethyl)-4-(3-((1-(5-isopropoxypyridin-2-yl)azetidin-3-yl)oxy)-4-methoxyphenyl)-3-methylpyrrolidin-1-yl)propan-1-one] | 8.51 | 8.65 | 1.39 | 8.53 |  | 
COc1ccc([C@@H]2CN(C(=O)[C@@H](O)CO)C[C@@]2(C)[C@@H](C)O)cc1OC1CN(c2ccc(C(C)C)cn2)C1 [Compound 032, (S)-2,3-dihydroxy-1-((3S,4S)-3-((R)-1-hydroxyethyl)-4-(3-((1-(5-isopropylpyridin-2-yl)azetidin-3-yl)oxy)-4-methoxyphenyl)-3-methylpyrrolidin-1-yl)propan-1-one] | 8.49 | 9.48 | 9.85 | 9.59 | 84 | 75.8
COc1ccc([C@@H]2CN(C(=O)[C@@H](O)CO)C[C@@]2(C)[C@@H](C)O)cc1OC1CN(c2ccc(CC(F)(F)F)cn2)C1 [Compound 033, (S)-2,3-dihydroxy-1-((3S,4S)-3-((R)-1-hydroxyethyl)-4-(4-methoxy-3-((1-(5-(2,2,2-trifluoroethyl)pyridin-2-yl)azetidin-3-yl)oxy)phenyl)-3-methylpyrrolidin-1-yl)propan-1-one] | 8.55 | 9.66 | 12.8 | 9.28 | 75.9 | 70.3
COc1ccc([C@@H]2CN(C(=O)[C@@H](O)CO)C[C@@]2(C)[C@@H](C)O)cc1OC1CN(c2ccc(C3CC3)cn2)C1 [Compound 034, (S)-1-((3S,4S)-4-(3-((1-(5-cyclopropylpyridin-2-yl)azetidin-3-yl)oxy)-4-methoxyphenyl)-3-((R)-1-hydroxyethyl)-3-methylpyrrolidin-1-yl)-2,3-dihydroxypropan-1-one] | 8.53 | 9.60 | 11.8 | 9.49 | 85.6 | 76.4

The next compounds have a higher pIC50 (PDE4D) than those just listed; values first:

pIC50 (PDE4D) | pIC50 (PDE4B) | IC50 (PDE4D)/IC50 (PDE4B) (PDE4B) | SMILES | pIC50 [1] | inhibition in vivo at 50 mg/kg [2, 3] [%] | inhibition in vivo at 50 mg/kg [2, 4] [%]
8.87 | 8.86 | 0.98 | COc1ccc([C@@H]2CN(C(=O)[C@@H](O)CO)C[C@@]2(C)[C@@H](C)O)cc1OC1CN(c2ncc(C)cc2C#N)C1 [Compound 006, 2-(3-(5-((3S,4S)-1-((S)-2,3-dihydroxypropanoyl)-4-((R)-1-hydroxyethyl)-4-methylpyrrolidin-3-yl)-2-methoxyphenoxy)azetidin-1-yl)-5-methylnicotinonitrile] | 8.60 |  | 
9.06 | 9.17 | 1.28 | COc1ccc(N2CC(Oc3cc([C@@H]4CN(C(=O)[C@@H](O)CO)C[C@@]4(C)[C@@H](C)O)ccc3OC)C2)nc1 [Compound 015, (S)-2,3-dihydroxy-1-((3S,4S)-3-((R)-1-hydroxyethyl)-4-(4-methoxy-3-((1-(5-methoxypyridin-2-yl)azetidin-3-yl)oxy)phenyl)-3-methylpyrrolidin-1-yl)propan-1-one] | 8.48 |  | 
9.25 | 8.68 | 0.27 | COc1ccc([C@@H]2CN(C(=O)[C@@H](O)CO)C[C@@]2(C)[C@@H](C)O)cc1OC1CN(c2cc(C)c(C#N)cn2)C1 [Compound 012, 6-(3-(5-((3S,4S)-1-((S)-2,3-dihydroxypropanoyl)-4-((R)-1-hydroxyethyl)-4-methylpyrrolidin-3-yl)-2-methoxyphenoxy)azetidin-1-yl)-4-methylnicotinonitrile] | 8.60 |  | 

Source: patent US20220056014A1, “PHENYLPYRROLIDINE COMPOUND AND USE THEREOF” (WUHAN HUMANWELL INNOVATIVE DRUG RESEARCH AND DEVELOPMENT …, priority 2018, published 2022)
